Measurements as given in patent US11213506B2, “Combination therapy for the treatment or prevention of tumours” (QBIOTICS PTY LTD, priority 2017, dated 2022).

Experiments:
[1] = test system: MM649 cells; assay: Lactate dehydrogenase (LDH) release assay; assay type: cell-based, human; details: 300 μM and 500 μM
Procedure: (§1) A431 (human epidermoid carcinoma), MM649 (human melanoma), B16-OVA (B16-F10 mouse melanoma cell line stably transfected with chicken ovalbumin), MM415 (human melanoma) and FaDu (human hypopharyngeal carcinoma) cells were cultured in RPMI-1640, 10% FCS (complete medium) at 37° C., 5% CO2 in a humidified incubator. All cell lines used in this study were confirmed as mycoplasma negative using MycoAlert (Lonza). STR profiling was also performed to confirm the identity of the human cell lines used.
(§2) Measuring the release of LDH is a well-recognised assay to assess plasma membrane permeabilisation and detect cell death by necrosis (Chan et al. 2013). Three cell lines (A431, MM649 and B16-OVA) were used in these assays. Cells were plated at a density of 10,000 cells per well into clear 96-well plates (Corning, #3595; 100 μl of complete media) and the resultant plates incubated overnight as previously detailed. The following day, media was aspirated from each well and 50 μl of fresh medium was inserted. Stock solutions of Compound 1 were diluted to 2× final assay concentrations (1 mM and 600 μM) and 50 μl of these dilutions added to the required wells. […] OD490 nm and OD690 nm readings were recorded for each sample using a Hybrid Synergy H4 plate reader. Absorbance readings from drug treated samples were normalized to detergent treated controls to determine the % LDH release per well.

[2] = test system: A431 cells; assay: Lactate dehydrogenase (LDH) release assay; assay type: cell-based, human; details: 300 μM and 500 μM
Procedure: as §1, §2

[3] = test system: mouse stroma in SK-MEL-28 human melanoma xenografts; assay: Gene expression changes in mouse tumour stroma (Illumina BeadChip); assay type: in vivo, BALB/c Foxn1nu mouse; details: 30 μg Compound 1 injected into the tumour
Procedure: The SK-MEL-28 human melanoma cell line was injected subcutaneously (s.c) into 2 sites on the flanks of each BALB/c Foxn1nu mouse (2 million cells/site) and allowed to grow to approximately 7 mm diameter. Each tumour was then injected with 50 μl of 20% propylene glycol containing 30 μg Compound 1 or with 50 μl of 20% propylene glycol. At different times after injection a mouse was euthanased and the tumours harvested, the skin covering removed, and the intact tumours stored at −80° C.
RNA was extracted from 30 mg of frozen tumour using the Qiagen RNeasy Plus Mini Kit, according to manufacturer's instructions, then quantitated with a NanoDrop instrument and integrity confirmed on denaturing agarose gels bearing a 1 kb DNA marker and stained with ethidium bromide.
Approximately 500 ng of total unlabelled RNA was adjusted to a final volume of 11 μl with nuclease-free water. The RNA was incubated with 9 μl of the reverse transcriptase master mix (1 μl of T7 Oligo (dT) Primer, 2 μl of 10× first strand buffer, 4 μl of dNTP mix, 1 μl of RNase inhibitor and 1 μl of ArrayScript) at 42° C. for 2 h. This was followed by the second strand cDNA synthesis step which involved a further incubation at 16° C. for 2 hr with 80 μl of the second strand master mix (63 μL nuclease-free water, 10 μl 10× second strand buffer, 4 μl dNTP mix, 2 μl DNA polymerase and 1 μl RNase H). The cDNA was purified by filtering through a cDNA Filter Cartridge with 250 μl of cDNA binding buffer and washing with 500 μl of the wash buffer provided in the kit. Purified cDNA was eluted with 20 μl of 55° C. nuclease-free water. Each cDNA sample was incubated with 7.5 μl of the IVT master mix (2.5 μl of T7 10× reaction buffer, 2.5 μl of T7 enzyme mix and 2.5 μl biotin-NTP mix) at 37° C. for 16 h. The reaction was stopped with the addition of 75 μl of nuclease-free water to each cRNA sample. The biotinylated, amplified RNA was purified by filtering the cRNA samples through cRNA Filter Cartridges with 350 μL of cRNA binding buffer and 250 μl of 100% ethanol mixed together prior to loading onto the filters. The cRNA filter cartridges with attached RNA were then washed with 650 μl of wash buffer before eluting purified cRNA with 200 μl of 55° C. nuclease-free water.
The cRNA samples were heated at 65° C. for 5 min and collected by pulse centrifugation. After heating at 65° C. for 5 min, approximately 750 ng of the cRNA sample was aliquoted into separate tubes to which were added ˜5 μl of RNase-free water and 10 μl of Hyb Mix. […]
BeadChips were read by the iScan System, and transferred via GenomeStudio into GeneSpring GX v12.5 (Agilent Technologies, Santa Clara, Calif., USA). […] The entities were filtered based on the detection score calculated by GenomeStudio where p≤0.05 was considered significant.

C/C=C(\C)C(=O)O[C@@H]1[C@@H](C)[C@@]2(O)[C@H]([C@@H]3C(C)(C)[C@]13OC(=O)[C@@H](C)CC)[C@@H]1O[C@]1(CO)[C@@H](O)[C@]1(O)C(=O)C(C)=C[C@H]12 [Compound 1, 12-tigloyl-13-(2-methylbutanoyl)-6,7-epoxy-4,5,9,12,13,20-hexahydroxy-1-tiglien-3-one]
LDH release compared to the controls [1]: significant release of LDH
LDH release compared to the controls [2]: significant release of LDH
Cxcl1 expression at the tumour site [3]: heavily upregulated
expression of host cytokines/chemokines important for recruitment/activation of immune cells at the tumour site [3]: upregulated
host gene expression changes associated with a Th-1/M-like response: IFN-γ, TNF, IL-δ and IL-1β [3]: induction
TGF beta signalling (pathway analysis of gene expression) ([3]; t=8 h): downregulation
